Measurements as given in ChEMBL document CHEMBL3600349 (Bioorg Med Chem Lett, 2015).

Tests used:
[1] = Lipophilicity, log P of the compound by HPLC analysis; type: physicochemical
[2] = Half life in rat liver microsomes; type: ADME
[3] = Intrinsic clearance in human hepatocytes assessed per 10^6 cells; type: ADME, cell-based, Hepatocyte; conditions: read-out: CLH
[4] = target: Melanin-concentrating hormone receptor 1 (Homo sapiens, UniProt Q99705); assay: Displacement of [125I]-MCH from human MCH-R1 expressed in CHO/Galpha16 cells after 60 mins by scintillation counting; type: cell-based
Sequence of Melanin-concentrating hormone receptor 1 (Q99705 whole entry): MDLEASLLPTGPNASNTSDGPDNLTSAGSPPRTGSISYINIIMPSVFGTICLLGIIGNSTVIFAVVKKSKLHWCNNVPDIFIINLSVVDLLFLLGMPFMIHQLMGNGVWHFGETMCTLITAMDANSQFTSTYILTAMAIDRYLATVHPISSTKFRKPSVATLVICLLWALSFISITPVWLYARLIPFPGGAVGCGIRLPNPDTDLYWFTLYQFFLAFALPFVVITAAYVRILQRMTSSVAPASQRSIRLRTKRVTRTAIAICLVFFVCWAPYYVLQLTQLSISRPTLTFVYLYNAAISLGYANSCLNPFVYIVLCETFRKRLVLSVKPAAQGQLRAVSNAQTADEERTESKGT

hERG (KCNH2) = hERG (KCNH2) (Homo sapiens, UniProt Q12809); assay: Inhibition of human ERG at 10 uM by patch clamp assay
Sequence of hERG (KCNH2) (Q12809 whole entry): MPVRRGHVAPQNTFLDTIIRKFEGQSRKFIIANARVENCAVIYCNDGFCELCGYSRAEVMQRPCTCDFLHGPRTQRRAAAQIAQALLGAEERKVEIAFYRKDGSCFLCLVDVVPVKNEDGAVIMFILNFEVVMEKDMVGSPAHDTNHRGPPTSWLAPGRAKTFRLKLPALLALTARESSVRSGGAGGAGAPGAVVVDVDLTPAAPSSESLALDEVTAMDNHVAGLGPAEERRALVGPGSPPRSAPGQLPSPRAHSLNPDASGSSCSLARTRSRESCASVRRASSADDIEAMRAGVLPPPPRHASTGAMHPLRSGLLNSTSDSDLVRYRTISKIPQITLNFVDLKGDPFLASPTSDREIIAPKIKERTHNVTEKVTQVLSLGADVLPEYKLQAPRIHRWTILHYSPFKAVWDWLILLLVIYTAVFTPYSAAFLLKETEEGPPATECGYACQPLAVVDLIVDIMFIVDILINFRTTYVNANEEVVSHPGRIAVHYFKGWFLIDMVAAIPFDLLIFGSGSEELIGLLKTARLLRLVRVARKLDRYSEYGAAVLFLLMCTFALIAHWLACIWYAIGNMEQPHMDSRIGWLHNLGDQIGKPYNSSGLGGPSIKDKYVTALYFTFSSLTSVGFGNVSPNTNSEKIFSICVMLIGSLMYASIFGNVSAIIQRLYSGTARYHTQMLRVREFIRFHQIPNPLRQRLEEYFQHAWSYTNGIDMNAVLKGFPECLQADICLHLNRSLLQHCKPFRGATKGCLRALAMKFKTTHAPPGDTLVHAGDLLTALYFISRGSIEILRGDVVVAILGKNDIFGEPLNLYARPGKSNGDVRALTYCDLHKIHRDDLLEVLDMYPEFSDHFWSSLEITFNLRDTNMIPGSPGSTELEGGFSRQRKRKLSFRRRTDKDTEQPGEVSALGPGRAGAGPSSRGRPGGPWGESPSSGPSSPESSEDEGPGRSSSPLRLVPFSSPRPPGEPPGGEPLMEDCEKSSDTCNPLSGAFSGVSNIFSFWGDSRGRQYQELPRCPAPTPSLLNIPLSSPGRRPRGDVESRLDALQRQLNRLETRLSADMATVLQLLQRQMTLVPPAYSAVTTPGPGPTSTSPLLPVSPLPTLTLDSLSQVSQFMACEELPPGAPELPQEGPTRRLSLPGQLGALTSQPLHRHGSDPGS

U-937 = assay: Toxicity in human U937 cells assessed as first effect concentration for phospholipidosis by nile red uptake assay; type: cell-based

Row | logP [1] | half-life [2] | hepatocyte CLint [3] | IC50 [4] | Structure (SMILES) | inhibition at 10 µM (hERG (KCNH2)) | Activity (U-937)
1 | 3.1 | 7 min | 58 µL/min/1e6 cells | 22 nM | CN(C)Cc1ccc(C(=O)Cn2ncc(OCc3ccc(Br)cn3)cc2=O)cc1 |  | 
2 | 2.8 | 45 min | 21 µL/min/1e6 cells |  | Cc1cc(CN(C)C)ccc1C(=O)Cn1ccc(OCc2ccc(Br)cn2)cc1=O | 42% | 50 µM
3 | 2.7 | 44 min | 14 µL/min/1e6 cells | 33 nM | Cc1cc(CN(C)C)ccc1C(=O)Cn1ccc(OCc2ccc(Cl)cn2)cc1=O | 41% | 50 µM
4 | 2.5 | 32 min | 66 µL/min/1e6 cells | 28 nM | CN(C)Cc1ccc(C(=O)Cn2ccc(OCc3ccc(Br)cn3)cc2=O)cc1 |  | 
